Measurements published in paper PMC8482815, “Targeting Host Glycolysis as a Strategy for Antimalarial Development” (Frontiers in Cellular and Infection Microbiology, 2021).
Read-outs that look alike come from different tables or passages of the source.

Columns and labels:
[1] = test system: P. berghei ANKA; format: in vivo, Swiss Webster mice; conditions: 2DG 200 mg/kg
Protocol: (§1) Groups of five female Swiss-Webster mice were injected intraperitoneally (i.p.) with 10^3 luciferase-expressing P. berghei ANKA parasites ([Franke-Fayard et al., 2008]). Forty-eight hours post infection, mice were injected i.p. daily for five days with either 200µL of 2% methylcellulose/0.5% Tween80, 40mg/kg chloroquine, 100mg/kg HEX, 30mg/kg POM-HEX, or 5mg/kg POM-SF. Enolase inhibitors dosing were selected as approximately 3-fold lower than the maximum acutely tolerated dose for each compound by i.p. injection. Day 7 post-infection, mice were injected with 150mg/kg D-luciferin potassium salt in PBS (GoldBio) and imaged on an IVIS 100 and parasite burden assessed (Xenogen LivingImage).
The glucose mimetic 2-DG and enolase inhibitors POM-HEX, and HEX were evaluated in the P. berghei mouse model of cerebral malarial, as previously described ([Wang et al., 2018]). Briefly, in addition to groups of mice (n = 5) dosed as described above for POM-HEX and HEX, 2-DG was administered to an additional group (n = 5) at 200mg/kg twice daily and all were monitored for survival, parasitemia (blood smear Giemsa), and clinical signs of cerebral malaria (paralysis, deviation of the head, ataxia, convulsions, and coma) over 15 days.

[2] = test system: P. falciparum strain 3D7; experiment: Plasmodium falciparum growth inhibition assay (Picogreen DNA content, three-day incubation); format: cell-based; conditions: for S.I. + pyruvate (Supplemental Table 4): MetHb EC50 / parasite EC50, with pyruvate; for S.I. - pyruvate (Supplemental Table 4): MetHb EC50 / parasite EC50, without pyruvate; for S.I. Fold Change (Supplemental Table 4): change in S.I. with versus without pyruvate
Protocol: (§2) Banked blood (Saint Louis Children’s Hospital) and fresh blood [healthy donors] was washed and stored at 50% hematocrit at 4°C up to 1 month past the clinical expiration date and collection date, respectively. Parasite strains provided by the Malaria Research and Reference Reagent Resource Center (MR4) as follows: 3D7 (MRA-102); K1 (MRA-159); D10 (MRA-201); and IPC-5202 (MRA-1240). Unless indicated, erythrocytes were cultured as previously described at 2% hematocrit in complete media (incomplete media supplemented with 27mM sodium bicarbonate, 11mM glucose, 5mM HEPES, 1mM sodium pyruvate, 0.37mM hypoxanthine, 0.01mM thymidine, 10µg/mL gentamicin, and 0.5% Albumax I (Thermo-Fisher) under 5% O2/5% CO2/90% N2 atmosphere at 37°C ([Guggisberg et al., 2014]).
(§3) Asynchronous cultures diluted to 1% parasitemia in 100μL wells were subjected to drug dilutions, solvent controls, and untreated uninfected erythrocyte controls in technical duplicates. Following a three-day incubation, DNA content was quantified using Picogreen (Life Technologies), as previously described ([Corbett et al., 2004]). Half-maximal effective concentrations (EC50) were determined from nonlinear regression of three biological replicates (GraphPad Prism).

[3] = test system: human erythrocytes; experiment: Detection and quantification of MetHb formation in cultured erythrocytes; format: cell-based; conditions: MetHb formation, 500 = highest concentration tested
Protocol: as §2
MetHb was detected by measuring absorbance in the 630-640nm range, which is specific from other hemoglobin subforms (oxyhemoglobin, deoxyhemoglobin, and carboxyhemoglobin). Supernatants were removed and erythrocyte pellets were fully lysed and diluted, as described above. The absorption peak for oxyhemoglobin (575nm) and MetHb (630nm) were measured and the EC50 of MetHb formation was determined using non-linear regression analysis (GraphPad Prism).

[4] = test system: P. falciparum; set-up: method as in Vennerstrom et al., 1999; Phillips et al., 2015; conditions: ref Vennerstrom et al., 1999; Phillips et al., 2015; read-out: EC50, in vitro potency of other antimalarial compounds; cited from earlier work
[5] = test system: P. falciparum K1 (chloroquine and sulfadoxine-pyrimethamine resistant); experiment: Plasmodium falciparum growth inhibition assay, drug-resistant line K1; format: cell-based; conditions: K1, chloroquine and sulfadoxine-pyrimethamine resistant, means ± s.e.m, read-out: EC50 (nM), P. falciparum K1
Protocol: (§4) Banked blood (Saint Louis Children’s Hospital) and fresh blood [healthy donors] was washed and stored at 50% hematocrit at 4°C up to 1 month past the clinical expiration date and collection date, respectively. Parasite strains provided by the Malaria Research and Reference Reagent Resource Center (MR4) as follows: 3D7 (MRA-102); K1 (MRA-159); D10 (MRA-201); and IPC-5202 (MRA-1240). […]
as §3, with “Prism). […]” for “Prism).”
(§5) Supplemental Table 5. […] Half-maximal inhibitor concentrations (EC50s) were determined for drug resistant malaria parasites and compared to the sensitive 3D7 strain. The respective EC50s are calculated from each of the independent biological replicates using a non-linear regression of the log of the inhibitor concentration with data from each technical replicate normalized to maximal and minimal growth using the software package GraphPad Prism. […]
(§6) means ± s.e.m calculated from three biological replicates.

[6] = test system: P. falciparum D10 (mefloquine resistant); experiment: Plasmodium falciparum growth inhibition assay, drug-resistant line D10; format: cell-based; conditions: D10, mefloquine resistant, means ± s.e.m, read-out: EC50 (nM), P. falciparum D10
Protocol: as §4
as §3, with “Prism). […]” for “Prism).”
as §5, §6

[7] = test system: P. falciparum IPC-5202 (chloroquine and artemisinin resistant); experiment: Plasmodium falciparum growth inhibition assay, drug-resistant line IPC-5202; format: cell-based; conditions: chloroquine and artemisinin resistant, means ± s.e.m, read-out: EC50 (nM), P. falciparum IPC-5202
Protocol: as §4
as §3, with “Prism). […]” for “Prism).”
as §5, §6

[8] = test system: luciferase-expressing P. berghei ANKA parasites; experiment: In vivo efficacy against blood stage parasite burden (luciferase imaging); set-up: species or system Swiss-Webster mice; conditions: i.p. daily for five days; 30mg/kg POM-HEX, 5mg/kg POM-SF
Protocol: as §1

[9] = P. falciparum growth, with pyruvate, read-out: Parasite EC50 + pyruvate (Supplemental Table 4)
[10] = P. falciparum growth, without pyruvate, 500 = highest concentration tested, read-out: Parasite EC50 - pyruvate (Supplemental Table 4)
[11] = with pyruvate, read-out: MetHb EC50 + pyruvate (Supplemental Table 4)
[12] = without pyruvate, read-out: MetHb EC50 - pyruvate (Supplemental Table 4)

Row | SMILES | S.I. + pyruvate (Supplemental Table 4) [2] | S.I. - pyruvate (Supplemental Table 4) [2] | EC50 [2, 9] [nM] | EC50 [2, 10] [nM] | S.I. Fold Change (Supplemental Table 4) [2] | EC50 [3, 11] [µM] | EC50 [3, 12] [µM] | also measured
1 | O=CC[C@@H](O)[C@H](O)[C@H](O)CO [Compound 2-DG, 2-deoxyglucose, reference compound] |  |  |  |  |  |  |  | effect on clinical score, overall survival, cerebral malaria (in words) ([1]; POM-HEX 30 mg/kg): did not improve; parasitemia ([1]; d4, blood smear Giemsa, treated from day 2, HEX 100 mg/kg, control 7.8±3.3%): 13.3±3.9%
2 | CC(C)OC(=O)OCOP(=O)(OCOC(=O)OC(C)C)C1CCCN(O)C1=O (centres unmarked) [Compound J52] | 0.3 | 0.3 | 1600 ± 4000 | 2900 ± 400 | 1.2 | 0.49 ± 0.02 | 0.77 ± 0.04 | 
3 | Cc1cc(Nc2ccc(S(F)(F)(F)(F)F)cc2)n2nc(C(C)(F)F)nc2n1 [DSM265] |  |  |  |  |  |  |  | EC50 [4]: 0.053 µM
4 | O=C1C(P(=O)(O)O)CCN1O (centres unmarked) [DeoxySF-2312] | 16.7 | 6.3 | 30000 ± 9700 | 80000 ± 2000 | 2.7 | > 500 | > 500 | selectivity for antiparasitic activity over erythrocyte toxicity (in words) ([2]; parasite growth versus MetHb formation): notably selective
5 | CC1(P(=O)(O)O)CC(O)N(O)C1=O (centres unmarked) [MethylSF-2312] | 19.2 | 3.8 | 26000 ± 2900 | 130000 ± 3500 | 5.1 | > 500 | > 500 | 
6 | O=C1C(P2(=O)NCCCO2)CCCN1O (centres unmarked) [PKM J45] | 5.3 | 14.3 | 94000 ± 4700 | 35000 ± 3100 | 0.4 | > 500 | > 500 | 
7 | CC(C)(C)C(=O)OCOP(=O)(OCOC(=O)C(C)(C)C)C1CC(O)N(O)C1=O (centres unmarked) [POM-SF] | 1.9 | 0.1 |  |  | 13.6 |  |  | EC50 ([2]; Plasmodium falciparum, 3D7, 72 h, P. falciparum growth, presence of 1mM pyruvate, mean ± s.e.m., read-out: Parasite EC50 + pyruvate): 250 ± 10 nM; EC50 ([2]; Plasmodium falciparum, 3D7, P. falciparum growth, absence of 1mM pyruvate, mean ± s.e.m., 500 = highest concentration tested, EC50 not resolved, read-out: Parasite EC50 - pyruvate): 710 ± 40 nM; EC50 ([2]; Plasmodium falciparum, 3D7, means ± s.e.m, three biological replicates, read-out: EC50 (nM), P. falciparum 3D7 (pan-sensitive)): 185 ± 18 nM; T.I. Fold change ([2]; change in T.I. with versus without 1mM pyruvate): 13.6; T.I. + pyruvate ([2]; therapeutic index = [EC50 for MetHb formation]/[EC50 for parasite growth inhibition], with 1mM pyruvate): 1.9; T.I. - pyruvate ([2]; therapeutic index = [EC50 for MetHb formation]/[EC50 for parasite growth inhibition], without pyruvate): 0.1; EC50 [5]: 361 ± 34 nM; EC50 [6]: 437 ± 83 nM; EC50 [7]: 321 ± 11 nM; EC50 ([3]; Homo sapiens, Erythrocyte, absence of 1mM pyruvate, mean ± s.e.m., EC50 not resolved, read-out: MetHb EC50 - pyruvate): 0.1 ± 0.002 µM; EC50 ([3]; Homo sapiens, Erythrocyte, presence of 1mM pyruvate, mean ± s.e.m., EC50 not resolved, read-out: MetHb EC50 + pyruvate): 0.48 ± 0.01 µM; effect on parasite burden (in words) [8]: does not forestall a lethal parasite burden
8 | CC(C)OC(=O)C(C)NP(=O)(NC(C)C(=O)OC(C)C)C1CCCN(O)C1=O (centres unmarked) [SDR4] | 6.8 | 15.6 | 73000 ± 8700 | 32000 ± 2400 | 0.4 | > 500 | > 500 | 
9 | CC(C)OC(=O)C(C)NP(=O)(Oc1ccccc1)C1CCCN(O)C1=O (centres unmarked) [SDR6] | 8.3 | 10.4 | 60000 ± 13000 | 48000 ± 2800 | 0.8 | > 500 | > 500 | 
10 | CC(=O)ON1CCCC(P(=O)(OCOC(=O)C(C)(C)C)OCOC(=O)C(C)(C)C)C1=O (centres unmarked) [SDR23] | 1.6 | 0.6 | 1600 ± 110 | 2100 ± 250 | 2.5 | 2.5 ± 0.34 | 1.3 ± 0.07 | 
11 | O=C1C(P(=O)(O)O)CC(O)N1O (centres unmarked) [SF-2312, reference compound] | 18.5 | 2.8 | 27000 ± 2000 | 180000 ± 9300 | 6.6 | > 500 | > 500 | EC50 ([2]; asexual P. falciparum, phosphonates, read-out: half maximal effective concentrations (EC50s), parasite growth): > 15000 nM
12 | COc1cc(C)c2c(Oc3cccc(C(F)(F)F)c3)c(OC)cc(NC(C)CCCN)c2n1 (centres unmarked) [tafenoquine] |  |  |  |  |  |  |  | EC50 [4]: 0.436 µM
